Test results: patent US7105488B1, “G protein-coupled receptor antagonists” (priority 1998, dated 2006)
Values belong to the molecule of their own block, whether it stands above or below them. Where a SMILES comes first, the peptide text is derived from it.

How the values were obtained:
Assay type in all cases: cell-based
CXCR4 receptor = CXCR4 receptor (Homo sapiens, UniProt P61073); test: Inhibition of SDF-1α-induced intracellular calcium release (Fura-2/AM) in HeLa and U87 cells; settings: for Concentration, required for inhibition of signal transduction: SDF-1α-induced intracellular calcium release, Table 2
Experimental: The effect of the peptides on CXCR4-mediated calcium fluxes in HeLa cells that naturally express the CXCR4 receptor and U87 cells stably expressing the CXCR4 receptor was tested as follows. Cells grown on Nunc cover glass chamber slides were incubated with 1 micromolar Fura-2/AM for 20 min in a CO2-incubator, rinsed with PBS and mounted on the stage of a Zeiss Axiovert inverted microscope. [Ca^2+]i measurements were performed using an Attofluor digital imaging system (Atto Instruments, Rockville, Md.). Fluorescence of Fura was excited at alternating wavelength of 340 and 380 nm. […] Calibrations of [Ca^2+]i signals were performed using Ca^2+ standards containing 1 micromolar Fura. CXCR4 antagonists were tested on HeLa cells and U87 cells. Stromal cell-derived factor-1α (SDF-1α) was used as a specific CXCR4 agonist. CCR5 antagonists, which were used in selectivity studies as described below, were tested on HEK (human kidney […]) cells stably expressing the CCR5 receptor and RANTES was used as an agonist. The antagonist activity of the peptides was evaluated by measuring the inhibition of agonist-evoked intracellular Ca^2+i release. These measurements were carried out in Fura-2/AM-treated cells, utilizing an Attofluor digital imaging system as described above. The agonist was SDF-1 α.

CCR5 receptor = molecular target: T1, CCR5 receptor (Homo sapiens, UniProt P51681); test: Inhibition of agonist (RANTES)-evoked intracellular calcium release through CCR5; settings: U87 cells as printed
T1 construct: expressed in transfected cells
Experimental: CCR5 antagonists, which were used in selectivity studies as described below, were tested on HEK (human kidney […]) cells stably expressing the CCR5 receptor and RANTES was used as an agonist. The antagonist activity of the peptides was evaluated by measuring the inhibition of agonist-evoked intracellular Ca^2+i release. These measurements were carried out in Fura-2/AM-treated cells, utilizing an Attofluor digital imaging system as described above. The agonist was SDF-1 α.

HIV-1RF = test: Anti-HIV-1 cytoprotection assay, CEM-SS cells infected with HIV-1RF; settings: HIV-1 strain RF, FIG. 2
CCKAR = molecular target: T2, CCKAR (Rattus norvegicus, UniProt P30551); test: Inhibition of CCK-8-induced intracellular calcium release in CHO cells stably transfected with rat CCKAR
T2 construct: expressed in transfected cells; host or cells: CHO cells
T2 sequence (P30551 1-444): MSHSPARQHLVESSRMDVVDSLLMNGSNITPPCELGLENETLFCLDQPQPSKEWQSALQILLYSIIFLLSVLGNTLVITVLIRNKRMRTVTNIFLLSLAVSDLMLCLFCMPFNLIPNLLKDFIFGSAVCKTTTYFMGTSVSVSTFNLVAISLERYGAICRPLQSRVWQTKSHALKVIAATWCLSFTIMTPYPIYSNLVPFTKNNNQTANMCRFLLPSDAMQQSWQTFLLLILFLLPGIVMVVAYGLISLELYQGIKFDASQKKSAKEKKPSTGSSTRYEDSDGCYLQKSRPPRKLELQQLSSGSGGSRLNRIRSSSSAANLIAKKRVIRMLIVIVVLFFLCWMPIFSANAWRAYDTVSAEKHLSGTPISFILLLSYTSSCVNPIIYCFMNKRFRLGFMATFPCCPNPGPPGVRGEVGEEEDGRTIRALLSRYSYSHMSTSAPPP
Experimental: The activity of peptides from the CCKAR transmembrane domain were tested in transfected CHO cells that stably express rat CCKAR (Tarasova et al. (1997), J. Biol. Chem. 272: 14817–14824). Sulfated cholecystokinin octapeptide was the CCKAR agonist. Determination of intracellular calcium release was performed as described in example 1 above.
None of CCKAR-derived peptides served as antagonists of chemokine receptors and none could inhibit HIV-1 infection. The activity of the antagonists in inhibiting signaling through the receptor was compared to the ability to prevent agonist binding (Table 4). Inhibition of signaling was assessed in CCK-8 evoked intracellular calcium release in FURA-2/AM treated CHO cells stably transfected with rat CCKAR (Tarasova, et al. (1997) J. Biol. Chem. 272:14817). Inhibition of ligand binding was measured with the use of a fluorescent agonist, rhodamine green CCK-8 (RG-CCK-8) and quantitative confocal laser scanning microscopy (Tarasova, et al. (1997) J. Biol. Chem. 272:14817). Peptides derived from the first, second, and sixth transmembrane domains inhibited CCK-induced signaling through the CCKAR receptor.

LAV strain of HIV-1 = test: Anti-HIV-1 assay, CEM-SS cells infected with LAV strain, p24 ELISA; settings: FIG. 1
Experimental: The ability of synthetic CXCR4-derived peptides of Table 1 to inhibit HIV-1 infection of CEM-SS cells was tested using an LAV strain of the virus that is known to utilize CXCR4 as a co-receptor. Anti-HIV-1 assay. Buckheit et al. (1993) Antiviral Research 21: 247. The CEM-SS cells were maintained in RPMI 1640 medium containing 10% fetal bovine serum. The cells were placed in each well of a 96-well microtiter plate to a density of 5×10^3 cells per well. The cells were infected with HIV-1 virus at a multiplicity of infection (MOI) previously determined to produce maximal level of viral production at 6 days post infection (MOI of 0.01).
Serial half-log dilutions of test compound were added to appropriate wells in triplicate to evaluate their ability to inhibit HIV-1 infection. AZT was used in parallel as a positive control. Following 6 days of incubation at 37° C., the presence and relative abundance of viral p24 protein was determined by ELISA in cell-free supernatants derived from each well of the microtiter plate. The p24 ELISA kit was purchased from the AIDS Vaccine Program, NCI, FCRDC (Frederick, Md.) and the assay was performed according to the manufacturer's instructions.

Chain of CXCR4 receptor (P61073 whole entry): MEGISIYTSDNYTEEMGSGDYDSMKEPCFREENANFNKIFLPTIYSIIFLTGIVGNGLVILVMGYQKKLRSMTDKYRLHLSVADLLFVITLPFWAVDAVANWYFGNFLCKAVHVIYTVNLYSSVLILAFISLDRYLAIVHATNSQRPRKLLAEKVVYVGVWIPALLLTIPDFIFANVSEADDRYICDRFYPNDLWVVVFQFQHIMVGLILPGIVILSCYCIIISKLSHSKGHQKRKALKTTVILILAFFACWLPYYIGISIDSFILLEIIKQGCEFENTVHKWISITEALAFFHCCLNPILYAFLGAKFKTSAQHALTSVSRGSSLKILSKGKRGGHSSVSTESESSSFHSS
T1 sequence (P51681 whole entry): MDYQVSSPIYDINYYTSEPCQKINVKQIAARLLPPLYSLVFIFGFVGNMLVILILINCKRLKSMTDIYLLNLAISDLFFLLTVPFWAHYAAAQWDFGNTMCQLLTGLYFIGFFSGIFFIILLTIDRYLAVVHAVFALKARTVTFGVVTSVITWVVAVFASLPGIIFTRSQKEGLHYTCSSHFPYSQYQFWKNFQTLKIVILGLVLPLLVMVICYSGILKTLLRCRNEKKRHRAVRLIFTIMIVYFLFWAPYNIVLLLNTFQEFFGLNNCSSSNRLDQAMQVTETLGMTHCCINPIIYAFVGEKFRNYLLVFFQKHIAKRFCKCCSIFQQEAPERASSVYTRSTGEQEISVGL

Molecule: LFFL LTVPFWAHYAAAQWDFGDD (LFFLLTVPFWAHYAAAQWDFGDD; CCR5-TM-2-2 GPCR CCR5)
Antagonist activity on CXCR4 signaling, in words (CXCR4 receptor): no effect | Concentration at which agonist induced signaling of the receptor was completely abolished (CCR5 receptor): 500 nM

Concentration, required for inhibition of signal transduction (CXCR4 receptor): 5 µM
Molecule: CC[C@H](C)[C@H](NC(=O)[C@H](Cc1ccccc1)NC(=O)[C@H](CC(=O)O)NC(=O)[C@@H]1CCCN1C(=O)[C@@H](NC(=O)[C@@H](NC(=O)[C@H](CC(C)C)NC(=O)[C@H](CC(C)C)NC(=O)[C@H](CC(C)C)NC(=O)[C@H](C)NC(=O)[C@@H]1CCCN1C(=O)[C@@H](NC(=O)[C@H](Cc1c[nH]c2ccccc12)NC(=O)[C@@H](NC(=O)CNC(=O)[C@@H](NC(=O)[C@H](Cc1ccc(O)cc1)NC(=O)[C@@H](N)C(C)C)C(C)C)C(C)C)[C@@H](C)CC)[C@@H](C)O)[C@@H](C)CC)C(=O)N[C@@H](Cc1ccccc1)C(=O)N[C@@H](C)C(=O)N[C@@H](CC(N)=O)C(=O)N[C@@H](CC(=O)O)C(=O)N[C@@H](CC(=O)O)C(=O)O [Peptide F-4-2] (H-VYVGVWIPALLLTIPDFIFANDD-OH; N-terminus and C-terminus assumed)
Concentration that completely inhibited infection (HIV-1RF): 1 µM

Concentration, required for inhibition of signaling (CCKAR; CCK-8-induced intracellular calcium release): 2 µM | Potency in inhibition of ligand signaling compared with binding (CCKAR; signaling versus RG-CCK-8 binding): comparable potencies
Molecule: CSCC[C@H](NC(=O)[C@H](CC(C)C)NC(=O)[C@H](CC(=O)O)NC(=O)[C@H](CO)NC(=O)[C@@H](NC(=O)[C@H](C)NC(=O)[C@H](CC(C)C)NC(=O)[C@H](CO)NC(=O)[C@H](CC(C)C)NC(=O)[C@H](CC(C)C)NC(=O)[C@@H](N)Cc1ccccc1)C(C)C)C(=O)N[C@@H](CC(C)C)C(=O)N[C@@H](CS)C(=O)N[C@@H](CC(C)C)C(=O)N[C@@H](Cc1ccccc1)C(=O)N[C@@H](CS)C(=O)N[C@@H](CCSC)C(=O)N1CCC[C@H]1C(=O)N[C@@H](Cc1ccccc1)C(=O)N[C@@H](CC(N)=O)C(=O)N[C@@H](CC(C)C)C(=O)N1CCC[C@H]1C(=O)O [CCKAR-TM-2-1] (H-FLLSLAVSDLMLCLFCMPFNLP-OH)

Molecule: CC[C@H](C)[C@H](NC(=O)[C@@H](NC(=O)[C@H](Cc1ccccc1)NC(=O)[C@H](CC(C)C)NC(=O)[C@@H](N)CC(C)C)C(C)C)C(=O)N[C@H](C(=O)N[C@@H](CC(C)C)C(=O)N1CCC[C@H]1C(=O)N[C@@H](Cc1ccccc1)C(=O)N[C@@H](Cc1c[nH]c2ccccc12)C(=O)N[C@@H](C)C(=O)N[C@H](C(=O)N[C@@H](CC(=O)O)C(=O)N[C@@H](C)C(=O)N[C@H](C(=O)N[C@@H](C)C(=O)N[C@@H](CC(N)=O)C(=O)N[C@@H](Cc1c[nH]c2ccccc12)C(=O)N[C@@H](Cc1ccc(O)cc1)C(=O)N[C@@H](Cc1ccccc1)C(=O)NCC(=O)N[C@@H](CC(N)=O)C(=O)N[C@@H](CC(=O)O)C(=O)N[C@@H](CC(=O)O)C(=O)O)C(C)C)C(C)C)[C@@H](C)O [Peptide F-2-2] (H-LLFVITLPFWAVDAVANWYFGNDD-OH; N-terminus and C-terminus assumed)
Concentration at which signal transduction was completely blocked (CXCR4 receptor): 0.2 µM | Concentration, required for inhibition of signal transduction (CXCR4 receptor): 0.2 µM | Concentration, required for complete inhibition of [Ca^2+I] release (CXCR4 receptor; TM2-derived peptides, Table 3): 0.2 µM | Concentration that completely inhibited infection (LAV strain of HIV-1): 5 µM
